Results published in US20160318856A1, “Substituted Urea eIF2alpha Kinase Activators” (THE BRIGHAM AND WOMEN'S HOSPITAL, INC., priority 2013, published 2016).
Read-outs that look alike come from different tables or passages of the source.

Assays:
[1] = test system: eIF2α phosphorylation (eIF2•GTP•Met-tRNAi ternary complex; HRI activation); experiment: surrogate dual luciferase eIF2α phosphorylation (ternary complex) assay; assay type: cell-based, human; conditions: for maximal fold induction: Homo sapiens, read-out: Emax (F/R)
Excerpt: The dual luciferase expression vector and other plasmids used for these studies were previously described (see, for example, Ziegeler, G. et al. Journal of Biological Chemistry 2010, 285(20), 15408-19). The ternary complex assay, surrogate of eIF2α phosphorylation, has been described elsewhere (see, for example, Chen, T. et al. Nature Chemical Biology 2011, 7(9), 610-6). Briefly, the pBISA vector, which contains seven copies of the tetracycline-regulated transactivator response element (TRE), is flanked on both sides by minimal human cytomegalovirus (CMV) minimal promoters allowing bi-directional transcription and two MCSs (multiple cloning sites). Firefly and renilla luciferases were subcloned into MCS-I and MCS-II, respectively. This plasmid, designated pBISA-DL, transcribes two mRNAs that contain the 90 nucleotide plasmid derived 5′UTR (same sequence in both mRNAs), and the ORF encoding either firefly or renilla luciferase followed by a polyadenylation sequence. This plasmid was further modified by inserting the 5′UTR of ATF-4 mRNA into MCS-I in front of the firefly luciferase mRNA. Transcription from this unit generates an mRNA that contains the firefly luciferase ORF preceded by a 5′UTR composed of 90 nucleotides derived from the plasmid and 267 nucleotides derived from the 5′UTR of ATF-4 mRNA. Transcription from the other unit generates an mRNA that contains the renilla luciferase ORF proceeded only by the 90-nucleotide plasmid-derived sequence in the 5′UTR (pBISA-DL (ATF-4)) (see, for example, Chen, T. et al. Nature Chemical Biology 2011, 7(9), 610-6).
Cells expressing firefly and renilla luciferases were assayed with a dual glow luciferase assay kit, per manufacturer's instruction (Promega Inc., Madison, Wis.). The data calculations were carried out as the ratio of firefly to renilla luciferase signal.
A library of 1900 urea compounds was screened in the surrogate dual luciferase eIF2α phosphorylation (ternary complex) assay. This library was originally assembled and screened for inhibition of sEH by Hammock's group at UC-Davis (see, for example, Chen, T. et al. Nature Chem Biol 2011, 7, 610-616; Ziegeler, G et al. J Biol Chem 2010, 285, 15408-15419). We developed this assay in order to identify compounds that activate HRI, taking advantage of the fact that activated HRI phosphorylates eIF2α thereby reducing the amount of the eIF2•GTP•Met-tRNAi ternary complex that results in inhibition of translation of many mRNAs but paradoxically increases translation of some mRNAs that contain multiple upstream ORF (uORF) in their 5′ untranslated regions (UTRs). In our assay, firefly (F) luciferase mRNA is fused to 5′UTR of activating transcription factor 4 (ATF-4) mRNA that has multiple uORFs while renilla (R) luciferase mRNA is fused to a 5′UTR lacking any uORFs. Compounds that reduce the amount of the ternary complex, such as those activating HRI, would increase F luciferase expression while decreasing the R luciferase expression, resulting in an increased F/R luciferase ratio. To calculate the activity scores, the F/R ratios for every compound-treated wells were normalized to vehicle-treated (DMSO) wells that was arbitrarily set at 1 (F/R=1).

[2] = test system: CRL-2813 human melanoma cancer cells; experiment: cell proliferation (SRB) assay, CRL-2813; assay type: cell-based; conditions: read-out: IC50
Protocol: Cells were seeded in 96-well plates and maintained for 5 days in the presence of 0.5 to 20 μM of individual compound, and cell proliferation was measured by the sulforhodamine B (SRB) assay as described previously (see, for example, Palakurthi, S. S. et al. Cancer Research 2000, 60(11), 2919-2925). Briefly, at the end of a 5-day treatment, cells were fixed in 10% cold trichloroacetic acid. Cell number was estimated by measuring the remaining bound dye of sulforhodamine B after washing. The percentage of growth was calculated by using the equation: 100×[(T−T0)/(C−T0)], where T and C represent the absorbance in treated and control cultures at Day 5, and T0 at time zero, respectively. If T is less than T0, cell death has occurred and can be calculated from 100×[(T−T0)/T0].

[3] = ternary complex assay, F/R normalized to vehicle (DMSO = 1)
[4] = cell proliferation assay (SRB, 5 days), cell line not named in Table 1, values equal CRL-2813 values of Tables 5/8
[5] = Homo sapiens, CRL2813, 120 h, cell proliferation assay (SRB, 5 days), cell line not named in Table 1, values equal CRL-2813 values of Tables 5/8
[6] = Homo sapiens, CRL2813, cell proliferation assay, Table 3, cell line not named, values equal CRL-2813 values of Table 8
[7] = surrogate eIF2α phosphorylation assay, Table 3
[8] = cell proliferation assay, Table 2, cell line not named

| Compound | Emax (F/R) [1, 3] | IC50 [2, 4] | other results |
| --- | --- | --- | --- |
| O=C(Nc1cccc(F)c1)NC1CCC(Oc2ccc(F)cc2)CC1 (centres unmarked) [Compound I-1m] | 6.54 F/R | 8.3 ± 0.9 µM | – |
| O=C(Nc1ccccc1F)NC1CCC(Oc2ccc(F)cc2)CC1 (centres unmarked) [Compound I-1o] | 2.10 F/R | 17.5 ± 1.1 µM | – |
| O=C(Nc1ccc(F)cc1)NC1CCC(Oc2ccc(F)cc2)CC1 (centres unmarked) [Compound I-1p] | 0.98 F/R | 20 ± 2.1 µM | – |
| O=C(Nc1cccc(Cl)c1)NC1CCC(Oc2ccc(F)cc2)CC1 (centres unmarked) [Compound I-2m] | 8.76 F/R | 5.9 ± 0.6 µM | – |
| O=C(Nc1ccccc1Cl)NC1CCC(Oc2ccc(F)cc2)CC1 (centres unmarked) [Compound I-2o] | 5.37 F/R | 9.1 ± 1 µM | – |
| O=C(Nc1ccc(Cl)cc1)NC1CCC(Oc2ccc(F)cc2)CC1 (centres unmarked) [Compound I-2p] | 1.65 F/R | > 20 µM | – |
| O=C(Nc1cccc(Br)c1)NC1CCC(Oc2ccc(F)cc2)CC1 (centres unmarked) [Compound I-3m] | 9.52 F/R | 6.2 ± 0.3 µM | – |
| O=C(Nc1ccccc1Br)NC1CCC(Oc2ccc(F)cc2)CC1 (centres unmarked) [Compound I-3o] | 5.23 F/R | 7.7 ± 0.1 µM | – |
| O=C(Nc1ccc(Br)cc1)NC1CCC(Oc2ccc(F)cc2)CC1 (centres unmarked) [Compound I-3p] | 1.29 F/R | > 20 µM | – |
| O=C(Nc1cccc(I)c1)NC1CCC(Oc2ccc(F)cc2)CC1 (centres unmarked) [Compound I-4m] | 10.32 F/R | 5.2 ± 0.2 µM | – |
| O=C(Nc1ccccc1I)NC1CCC(Oc2ccc(F)cc2)CC1 (centres unmarked) [Compound I-4o] | 3.25 F/R | > 20 µM | – |
| O=C(Nc1ccc(I)cc1)NC1CCC(Oc2ccc(F)cc2)CC1 (centres unmarked) [Compound I-4p] | 3.77 F/R | 10.2 ± 1.5 µM | – |
| O=C(Nc1cccc(C(F)(F)F)c1)NC1CCC(Oc2ccc(F)cc2)CC1 (centres unmarked) [Compound I-5m] | – | – | maximal fold induction [1, 3]: 11.8; IC50 [2, 5]: 2.6 ± 0.3 µM; IC50 [2, 6]: 2.6 ± 0.6 µM |
| O=C(Nc1ccccc1C(F)(F)F)NC1CCC(Oc2ccc(F)cc2)CC1 (centres unmarked) [Compound I-5o] | 1.56 F/R | > 20 µM | – |
| O=C(Nc1ccc(C(F)(F)F)cc1)NC1CCC(Oc2ccc(F)cc2)CC1 (centres unmarked) [Compound I-5p] | 13.99 F/R | 2.8 ± 0.1 µM | – |
| O=C(Nc1ccccc1OC(F)(F)F)NC1CCC(Oc2ccc(F)cc2)CC1 (centres unmarked) [Compound I-6o] | 1.41 F/R | > 20 µM | – |
| Cc1cccc(NC(=O)NC2CCC(Oc3ccc(F)cc3)CC2)c1 (centres unmarked) [Compound I-7m] | 4.73 F/R | 14.4 ± 0.5 µM | – |
| Cc1ccccc1NC(=O)NC1CCC(Oc2ccc(F)cc2)CC1 (centres unmarked) [Compound I-7o] | 0.98 F/R | > 20 µM | – |
| Cc1ccc(NC(=O)NC2CCC(Oc3ccc(F)cc3)CC2)cc1 (centres unmarked) [Compound I-7p] | 1.05 F/R | > 20 µM | – |
| COc1cccc(NC(=O)NC2CCC(Oc3ccc(F)cc3)CC2)c1 (centres unmarked) [Compound I-8m] | 3.81 F/R | 14 ± 1.3 µM | – |
| COc1ccccc1NC(=O)NC1CCC(Oc2ccc(F)cc2)CC1 (centres unmarked) [Compound I-8o] | 1.51 F/R | > 20 µM | – |

| Compound | Emax (F/R) [1, 3] | IC50 [2, 4] | other results |
| --- | --- | --- | --- |
| COc1ccc(NC(=O)NC2CCC(Oc3ccc(F)cc3)CC2)cc1 (centres unmarked) [Compound I-8p] | 0.83 F/R | > 20 µM | – |
| O=C(Nc1cccc([N+](=O)[O-])c1)NC1CCC(Oc2ccc(F)cc2)CC1 (centres unmarked) [Compound I-9m] | 7.47 F/R | 6.7 ± 0.7 µM | – |
| O=C(Nc1ccccc1[N+](=O)[O-])NC1CCC(Oc2ccc(F)cc2)CC1 (centres unmarked) [Compound I-9o] | 2.23 F/R | 3.5 ± 0.3 µM | – |
| O=C(Nc1ccc([N+](=O)[O-])cc1)NC1CCC(Oc2ccc(F)cc2)CC1 (centres unmarked) [Compound I-9p] | 9.00 F/R | 2.3 ± 0.1 µM | – |
| CSc1cccc(NC(=O)NC2CCC(Oc3ccc(F)cc3)CC2)c1 (centres unmarked) [Compound I-10m] | 6.67 F/R | 11.1 ± 1.1 µM | – |
| CSc1ccccc1NC(=O)NC1CCC(Oc2ccc(F)cc2)CC1 (centres unmarked) [Compound I-10o] | 0.92 F/R | > 20 µM | – |
| CSc1ccc(NC(=O)NC2CCC(Oc3ccc(F)cc3)CC2)cc1 (centres unmarked) [Compound I-10p] | 1.07 F/R | > 20 µM | – |
| COC(=O)c1cccc(NC(=O)NC2CCC(Oc3ccc(F)cc3)CC2)c1 (centres unmarked) [Compound I-11m] | 6.83 F/R | 9.2 ± 0.8 µM | – |
| COC(=O)c1ccccc1NC(=O)NC1CCC(Oc2ccc(F)cc2)CC1 (centres unmarked) [Compound I-11o, methyl 2-(3-(4-(4-fluorophenoxy)cyclohexyl)ureido)benzoate] | – | – | maximal fold induction [1, 3]: 3.79; IC50 [2, 5]: 14.5 ± 1.6 µM |
| COC(=O)c1ccc(NC(=O)NC2CCC(Oc3ccc(F)cc3)CC2)cc1 (centres unmarked) [Compound I-11p] | 3.97 F/R | 11.6 µM | – |
| O=C(Nc1cccc(C(=O)O)c1)NC1CCC(Oc2ccc(F)cc2)CC1 (centres unmarked) [Compound I-12m] | 0.88 F/R | > 20 µM | – |
| O=C(Nc1ccccc1C(=O)O)NC1CCC(Oc2ccc(F)cc2)CC1 (centres unmarked) [Compound I-12o, 2-(3-(4-(4-fluorophenoxy)cyclohexyl)ureido)benzoic acid] | – | – | maximal fold induction [1, 3]: 1.2; IC50 [2, 5]: > 20 µM |
| O=C(Nc1ccc(C(=O)O)cc1)NC1CCC(Oc2ccc(F)cc2)CC1 (centres unmarked) [Compound I-12p] | 3.49 F/R | 11.6 ± 1.8 µM | – |
| O=C(Nc1ccccc1)NC1CCC(Oc2ccc(F)cc2)CC1 (centres unmarked) [Compound I-13] | 1.65 F/R | 20 ± 2 µM | – |
| O=C(Nc1cccc(C(F)(F)F)c1)NC1CCC(Oc2ccc(Cl)cc2)CC1 (centres unmarked) [Compound I-16, 1-(4-(4-Chlorophenoxy)cyclohexyl)-3-(3-(trifluoromethyl)phenyl)urea] | – | – | maximal fold induction [1, 7]: 6.73; IC50 [2, 6]: 2 ± 0.1 µM |
| O=C(Nc1cccc(C(F)(F)F)c1)NC1CCC(Oc2ccccc2C(F)(F)F)CC1 (centres unmarked) [Compound I-19, 1-(4-(2-(Trifluoromethyl)phenoxy)cyclohexyl)-3-(3-(trifluoromethyl)phenyl)urea] | – | – | maximal fold induction [1, 7]: 15.7; IC50 [2, 6]: 1.4 ± 0.3 µM |
| O=C(Nc1cccc(F)c1)N[C@H]1CC[C@H](OCc2c(F)cccc2F)CC1 [II-1m] | – | – | Emax (F/R) ([1]; 7.5 μM compound): 0.72 F/R; Emax (F/R) ([1]; 15 μM compound): 0.77 F/R; Emax (F/R) ([1]; 30 μM compound): 0.67 F/R; IC50 [2, 8]: > 20 µM |
| O=C(Nc1ccccc1F)N[C@H]1CC[C@H](OCc2c(F)cccc2F)CC1 [II-1o] | – | – | Emax (F/R) ([1]; 7.5 μM compound): 0.96 F/R; Emax (F/R) ([1]; 15 μM compound): 0.98 F/R; Emax (F/R) ([1]; 30 μM compound): 0.89 F/R; IC50 [2, 8]: > 20 µM |
| O=C(Nc1cccc(Cl)c1)N[C@H]1CC[C@H](OCc2c(F)cccc2F)CC1 [II-2m] | – | – | Emax (F/R) ([1]; 7.5 μM compound): 0.79 F/R; Emax (F/R) ([1]; 15 μM compound): 0.78 F/R; Emax (F/R) ([1]; 30 μM compound): 0.75 F/R; IC50 [2, 8]: > 20 µM |
| O=C(Nc1ccccc1Cl)N[C@H]1CC[C@H](OCc2c(F)cccc2F)CC1 [II-2o] | – | – | Emax (F/R) ([1]; 7.5 μM compound): 0.81 F/R; Emax (F/R) ([1]; 15 μM compound): 0.69 F/R; Emax (F/R) ([1]; 30 μM compound): 0.81 F/R; IC50 [2, 8]: > 20 µM |
| O=C(Nc1ccc(Cl)cc1)N[C@H]1CC[C@H](OCc2c(F)cccc2F)CC1 [II-2p] | – | – | Emax (F/R) ([1]; 7.5 μM compound): 0.95 F/R; Emax (F/R) ([1]; 15 μM compound): 0.96 F/R; Emax (F/R) ([1]; 30 μM compound): 0.74 F/R; IC50 [2, 8]: > 20 µM |
